{"source": "patent US5905084A", "about": "“5-HTIF -agonists effective in treating migraine” (priority 1997, dated 1999)", "origin": "cited, not measured here", "key": {"neurogenic inflammation": {"tested_on": "neurogenic inflammation", "conditions": "Neurology, 43(suppl. 3), S16-S20 (1993)"}, "[1]": {"tested_on": "exploratory behavior in arthritic animals", "conditions": "Larsen and Arnt (1985)"}}}
{"molecule": "CNS(=O)(=O)Cc1ccc2[nH]cc(CCN(C)C)c2c1.O=C(O)CCC(=O)O", "note": "[Compound I, 3-[2-(dimethylamino)ethyl]-N-methyl-1H-indole-5-methanesulfonamide butane-1,4-dioate (1:1)]", "values": [{"measurement": "neurogenic inflammation blocked", "setting": "neurogenic inflammation", "value": "blocked"}]}
{"molecule": "CN(C)CCCC1(c2ccc(F)cc2)OCc2cc(C#N)ccc21", "note": "(centres unmarked) [citalopram]", "values": [{"measurement": "exploratory behavior", "setting": "[1]", "value": "improve exploratory behavior"}]}
